# Data taken from PubChem BioAssay (NCI).
# Where “and” joins values, the source holds several entries; their conditions need not be identical. Equal values may be shown once.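 Following 48 hours of exposure in 96-well plates, responses at five concentrations were used to interpolate endpoints linearly. The concentration for 50% growth inhibition is given as GI50. At the TGI there is no net growth.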
# What was measured:
# Experiment in all cases: NCI anticancer screen, dose series, 48 h
# [1] = system: HCC-2998 colon
# [2] = system: SR leukemia
# [3] = system: U251 CNS
# [4] = system: PC-3 prostate
# [5] = system: RXF 393 renal
# [6] = system: LOX IMVI melanoma
# [7] = system: SF-295 CNS
# [8] = system: SK-MEL-28 melanoma
# [9] = system: K-562 leukemia
# [10] = system: MDA-MB-435
Structure (SMILES),GI50 [1],TGI [1],GI50 [2] [µM],TGI [2],GI50 [3],TGI [3],GI50 [4] [µM],TGI [4],GI50 [5],TGI [5],GI50 [6] [µM],TGI [6],GI50 [7],TGI [7],GI50 [8],TGI [8],GI50 [9] [µM],TGI [9],GI50 [10] [µM],TGI [10]
CCN1C(=O)N(CC)C2C1NN=c1s/c(=C3\C(=O)Nc4ccccc43)c(=O)n12 (stereo unspecified),1.47 µM,31.7 µM,0.292,> 62 µM,0.556 µM,21 µM,0.393,> 100 µM,0.279 µM,1.05 µM,0.625,29.2 µM,0.463 µM,12.4 µM,0.891 µM,> 100 µM,0.343,> 100 µM,0.147,0.357 µM
O=C(O)c1cccc([As]=[As]c2cccc(C(=O)O)c2)c1 (stereo unspecified),–,> 100 µM,–,89.5 µM,–,35.5 µM,–,36.7 µM,–,81.8 µM,–,69.6 µM,–,> 100 µM,–,> 100 µM,–,> 100 µM,–,> 100 µM
CCc1nc(N)nc(N)c1C#CC(C)c1ccc(-c2ccncc2)cc1Cl (stereo unspecified),0.0869 µM and 0.134 µM,4.07 µM and 13.1 µM,–,2.27 µM and 6.27 µM,0.0108 µM and 0.028 µM,5.1 µM and 11.6 µM,< 0.005,4.85 µM and 12.5 µM,0.141 µM and 0.312 µM,2.12 µM and 7.44 µM,< 0.005,1.37 µM and 11.3 µM,0.00508 µM and 0.0141 µM,0.809 µM and 4.24 µM,0.0645 µM and 0.375 µM,4.52 µM and 17 µM,< 0.005,28.5 µM and 15.2 µM,–,4.85 µM and 14.3 µM
CNc1c2ccccc2nc2occ(Cl)c12,36 µM,> 100 µM,18.3,50.6 µM,31.4 µM,> 100 µM,26.5,> 100 µM,19.7 µM,50.8 µM,25.5,75.2 µM,20.6 µM,88.2 µM,48.7 µM,> 100 µM,26.4,> 100 µM,17.2,79.9 µM
COc1ccc(C2=C(c3ccc(OC)cc3)C(=O)OC2)cc1,0.264 µM,14.5 µM,0.238,0.663 µM,0.421 µM,3.46 µM,5.19,44.1 µM,1.05 µM,–,0.964,15.1 µM,0.549 µM,–,6.29 µM,> 100 µM,1.24,24.3 µM,0.0752,0.4 µM
CCCC(=O)Oc1ccc(/C(=C(\C)c2ccc(Cl)cc2)c2ccc(OCCN(CC)CC)cc2)cc1,2.67 µM,7.06 µM,1.98,6.92 µM,1.95 µM,4.06 µM,0.56,14.1 µM,1.72 µM,3.55 µM,1.85,3.4 µM,1.93 µM,3.81 µM,1.91 µM,3.91 µM,2.08,5.09 µM,1.78,3.68 µM
O=CNC(Cc1cnc[nH]1)C(=O)O (stereo unspecified),–,–,–,> 100 µM,–,> 100 µM,–,> 100 µM,–,> 100 µM,–,> 100 µM,–,> 100 µM,–,> 100 µM,–,> 100 µM,–,> 100 µM
O=C(CSSCC(=O)c1ccc(Cl)cc1)c1ccc(Cl)cc1,8.56 µM,22.2 µM,2.82,> 100 µM,4.16 µM,17.5 µM,6.12,30.5 µM,4.49 µM,14.7 µM,2.6,8.2 µM,2.58 µM,15.2 µM,5.83 µM,22.5 µM,3.28,> 100 µM,2.57,11 µM
O=C1c2ccccc2C(=O)c2c1ccc1conc21,–,29.8 µM,–,18.3 µM,–,3.14 µM,–,5.06 µM,–,5.64 µM,–,1.78 µM,–,4.97 µM,–,7.94 µM,–,42.5 µM,–,1.37 µM
C=C1C(=O)OC2CC1C(OC(=O)/C=C/c1ccccc1)C/C(C)=C/CC/C(C)=C/CCC2(C)O (stereo unspecified),–,3.12 µM,–,> 21.6 µM,–,4.28 µM,–,3.22 µM,–,2.72 µM,–,2.61 µM,–,3.01 µM,–,15.6 µM,–,> 100 µM,–,3.76 µM
O=C(O)CCC(O)=C1S(=O)(=O)OCCOS1(=O)=O,–,> 100 µM,–,> 100 µM,–,> 100 µM,–,> 100 µM,–,> 100 µM,–,> 100 µM,–,> 100 µM,–,> 100 µM,–,> 100 µM,–,> 100 µM
CC(=O)CC[N+](C)(C)C,–,68.1 µM,–,21.5 µM,–,59.9 µM,–,99.5 µM,–,20.1 µM,–,37.8 µM,–,> 100 µM,–,50 µM,–,13.5 µM,–,76.7 µM
COC(=O)CNC(=O)C(=O)c1c(O)c(O)c(C(C)C)c2cc(C)c(-c3c(C)cc4c(C(C)C)c(O)c(O)c(C(=O)C(=O)NCC(=O)OC)c4c3O)c(O)c12,1.92 µM,7.1 µM,1.32,7.76 µM,1.53 µM,5.85 µM,1.84,7.26 µM,1.85 µM,8.39 µM,1.56,6.28 µM,1.46 µM,6.89 µM,2 µM,8.61 µM,1.88,> 50 µM,2.46,9.3 µM
COc1ccc(Cn2cc3c(c2-c2ccccc2)CCc2cnoc2-3)cc1,0.209 µM,0.905 µM,0.0574,3.16 µM,0.264 µM,> 100 µM,0.096,> 100 µM,–,–,0.38,> 100 µM,0.0652 µM,> 100 µM,33.9 µM,> 100 µM,0.0404,> 100 µM,0.0311,> 100 µM
O=C(CCN1CCCC1)Nc1ccc2c(Nc3ccc(F)cc3)c3ccccc3nc2c1,1.16 µM,2.52 µM,0.174,2.3 µM,1.17 µM,3.03 µM,1.34,3.97 µM,1.23 µM,2.64 µM,0.606,2.01 µM,1.05 µM,2.32 µM,1.7 µM,3.24 µM,–,–,1.58,3 µM
